Measured values taken from publication PMC12682947, “Identification of New KCNT1‐Epilepsy Drugs by In Silico, Cell, and Drosophila Modeling” (Annals of Neurology, 2025).

How the values were obtained:
[1] = system: Drosophila epilepsy model; parameters: method as in PMID 39720593; conditions: cited from earlier work
[2] = system: Drosophila mutant KCNT1 lines (G288S, R398Q, R928C); assay: Bang-sensitive behavioral seizure assay, statements for all three Drosophila mutant KCNT1 lines; type: in vivo, Drosophila melanogaster; conditions: drug in food, 1 nM to 1 μM, each of the three mutant lines
Text: The Drosophila melanogaster lines carrying the WT human KCNT1 transgene (NM_020822_3) or KCNT1 mutant G288S, R398Q or R928C transgene placed downstream of the yeast UAS promoter, have been described previously.[11] WT or mutant human UAS‐KCNT1 flies were crossed to flies expressing the GAL4 transcriptional activator under the control of the GAD1 promoter (GABAergic driver, Bloomington stock number 51630 P2) to drive expression of KCNT1 in GABAergic neurons, involved in neuronal inhibition.[11]
The bang‐sensitive behavioral assay (also known as the banging assay) was used to test for the presence of a seizure phenotype in Drosophila.[11], [30] Experiments were performed and scored, as previously described,[11] with a minimum of 50 Drosophila tested for each genotype and drug concentration.
Four drugs were selected for in vivo analysis to determine their effects on the seizure phenotypes in transgenic Drosophila lines with human mutant KCNT1 channels. Bepridil, a nonselective KCNT1 inhibitor was included for comparison. Drosophila food with and without drugs was prepared as previously described.[11] All chemicals were obtained from Sigma‐Aldrich (Gillingham, UK) apart from antrafenine hydrochloride (Toronto Research Chemicals, Canada) and regorafenib (USP, Germany).
Drosophila crosses were set up, and the resulting embryos were collected, as previously described.[11] A range of concentrations of each drug dissolved in Drosophila food, between 0.001 μM and 1 μM, were used in the experiments. Multiple replicates were performed for each dosage of the drugs and controls. Controls were vehicle controlled (VC), which was the normal food with just the solvent ethanol present (1 μl/1 ml) in the Drosophila food, and normal food (NF) control where no drug or solvent (ethanol) was added in the Drosophila food.
In all experiments, experimenters were not blinded to variants or treatments, nor were samples randomly assigned to groups. Sample sizes were not calculated in advance and no data were excluded from the analysis. Data were analyzed using GraphPad Prism 9 software (San Diego, CA, USA). All values are reported as mean ± standard error of the mean (SEM). All data passed normality and lognormality Shapiro–Wilk tests, determined by GraphPad Prism 9. In the experiments analyzing the effects of drugs in Drosophila, statistical significance of differences between groups was determined using Brown‐Forsythe and Welch's analysis of variance (ANOVA) tests (Supplementary Table S3), assuming non‐equal SDs, followed by Dunnett's multiple comparisons tests (GraphPad Prism 9). The results of the Dunnett's multiple comparisons tests are shown in Supplementary Table S4, where “N” represents independent trials using independent fly crosses, with the total number of flies for each condition shown in brackets.

[3] = system: Drosophila mutant KCNT1 lines (G288S, R398Q, R928C); parameters: method as in PMID 38336906; conditions: Drosophila models of KCNT1 epilepsy; cited from earlier work

Q: Which reduction of seizures [1] does the source give for `O=C1NC(=O)C(c2ccccc2)(c2ccccc2)N1` [Phenytoin] here?
A: The reduction of seizures was “approximately 30%”.

Q: For `CC(C)COCC(CN(Cc1ccccc1)c1ccccc1)N1CCCC1` (centres unmarked) [bepridil], which “effect on seizure activity (in words)” value [2] is on record?
A: The value was “exacerbate the seizure phenotype”.

Q: Which reduction of seizures [1] does the source give for `CCCC(CCC)C(=O)O` [valproate] here?
A: The reduction of seizures was “approximately 30%”.

Q: For `Nc1nnc(-c2cccc(Cl)c2Cl)c(N)n1` [lamotrigine], which reduction of seizures [1] is on record?
A: Its reduction of seizures is “approximately 30%”.

Q: Which “effect on seizure phenotype (in words)” value [3] does the source give for `C=C[C@H]1C[N@@]2CC[C@H]1C[C@@H]2[C@@H](O)c1ccnc2ccc(OC)cc12` [quinidine] here?
A: The value was “exacerbate the seizure phenotype”.
